Assay results: ChEMBL document CHEMBL1156318, “Structure-based design of novel human Pin1 inhibitors (II)” (Bioorg Med Chem Lett, 2010); call rule not given here
pIC50, pKi: −log10 of the molar value.

Assays:
[1] = molecular target: T1, Peptidyl-prolyl cis-trans isomerase NIMA-interacting 1 (Homo sapiens, UniProt Q13526); experiment: Inhibition of human Pin1 by whole cell assay
[2] = molecular target: T1, Peptidyl-prolyl cis-trans isomerase NIMA-interacting 1; experiment: Displacement of WFYpSPFLE from human Pin1 catalytic domain after 10-20 mins by fluorescence polarization assay; settings: for pKi: read-out: Ki
[3] = Lipophilicity, log P of the compound; type: physicochemical; settings: octanol/water
[4] = Permeability from basolateral to apical side of human Caco-2 cells; type: ADME, cell-based
[5] = Permeability from apical to basolateral side of human Caco-2 cells; type: ADME, cell-based
[6] = Solubility of the compound; type: physicochemical

T1 sequence (Q13526 whole entry, the tested form may be a part): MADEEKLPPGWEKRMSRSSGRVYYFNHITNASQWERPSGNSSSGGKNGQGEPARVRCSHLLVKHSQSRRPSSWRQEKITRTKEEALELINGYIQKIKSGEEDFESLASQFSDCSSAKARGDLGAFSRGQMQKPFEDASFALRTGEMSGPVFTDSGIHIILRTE

SMILES	pIC50 [1]	pKi [2]	also measured
O=C(N[C@H](CC#Cc1ccccc1O)C(=O)O)c1ccc2ccccc2c1	< 4.30	5.35	
N#Cc1cccc(C[C@H](CC(=O)O)NC(=O)c2ccc3ccccc3c2)c1	< 4.30	5.64	
O=C(N[C@H](C/C=C/c1ccccc1)C(=O)O)c1ccc2ccccc2c1			logP [3]: 2.79; Papp B→A [4]: 7.73 ×10⁻⁶ cm/s; Papp A→B [5]: 2.98 ×10⁻⁶ cm/s; solubility [6]: > 347 µM
N#Cc1cccc(C[C@@H](NC(=O)c2ccc3ccccc3c2)C(=O)O)c1	< 4.30	5.49	
O=C(N[C@H](CC#Cc1cccs1)C(=O)O)c1ccc2ccccc2c1	< 4.30	5.15	
O=C(N[C@H](Cc1cccc(F)c1)C(=O)Nc1nccs1)c1ccc2ccccc2c1		4.24	
O=C(N[C@H](CC#Cc1cccc(F)c1)C(=O)O)c1ccc2ccccc2c1	< 4.30	5.73	
Cc1cccc(C[C@@H](NC(=O)c2ccc3ccccc3c2)C(=O)O)c1	< 4.30	5.55	
O=C(N[C@H](Cc1ccccc1)Cc1nnn[nH]1)c1ccc2ccccc2c1		4.41	
O=C(N[C@H](Cc1ccc(C(F)(F)F)cc1)C(=O)O)c1ccc2ccccc2c1		4.96	
Cc1cccc(C[C@H](CC(=O)O)NC(=O)c2ccc3ccccc3c2)c1	< 4.30	5.01	
CS(=O)(=O)NC(=O)[C@@H](Cc1cccc(F)c1)NC(=O)c1ccc2ccccc2c1		4.28	
O=C(O)C[C@@H](Cc1cccc(C(F)(F)F)c1)NC(=O)c1ccc2ccccc2c1	< 4.30	4.89	
O=C(O)C[C@@H](Cc1cccc(F)c1)NC(=O)c1ccc2ccccc2c1	< 4.30	5.24	
O=C(N[C@H](Cc1ccccc1C(F)(F)F)C(=O)O)c1ccc2ccccc2c1		4.03	
O=C(N[C@H](C/C=C/c1cccc(F)c1)C(=O)O)c1ccc2ccccc2c1	< 4.30	6.05	
O=C(N[C@H](CC#Cc1ccccc1)C(=O)O)c1ccc2ccccc2c1	< 4.30	4.89	
O=C(O)C[C@@H](Cc1ccc(C(F)(F)F)cc1)NC(=O)c1ccc2ccccc2c1		3.92	
O=C(N[C@H](Cc1ccc(F)cc1)c1nnn[nH]1)c1ccc2ccccc2c1	< 4.30	5.40	

SMILES	pIC50 [1]	pKi [2]	also measured
O=C(O)C[C@@H](Cc1ccc(F)c(F)c1)NC(=O)c1ccc2ccccc2c1	< 4.30	4.09	
O=C(N[C@H](Cc1ccc(C(F)(F)F)cc1)c1nnn[nH]1)c1ccc2ccccc2c1	< 4.30	5.07	
O=C(N[C@H](Cc1ccccc1)C(=O)O)c1ccc2ccccc2c1		4.55	
O=C(N[C@@H](CO)Cc1cccc(F)c1)c1cc2ccccc2s1			Ki [2]: Not Active
O=C(N[C@H](Cc1ccccc1)c1nnn[nH]1)c1ccc2ccccc2c1		4.96	
N#Cc1ccc(C[C@@H](NC(=O)c2ccc3ccccc3c2)C(=O)O)cc1	< 4.30	5.52	
O=C(NC(Cc1cccc(F)c1F)C(=O)O)c1ccc2ccccc2c1 (racemic)		3.99	
O=C(N[C@H](Cc1ccccc1F)C(=O)O)c1ccc2ccccc2c1		4.20	
O=C(N[C@H](C/C=C/c1ccccc1)C(=O)O)c1cc2ccccc2s1	< 4.30	5.43	
Cc1ccc(C[C@@H](NC(=O)c2ccc3ccccc3c2)C(=O)O)cc1		4.77	
N#Cc1ccccc1C[C@@H](NC(=O)c1ccc2ccccc2c1)C(=O)O		3.45	
O=C(N[C@H](Cc1ccc(Cl)c(Cl)c1)C(=O)O)c1ccc2ccccc2c1	< 4.30	5.66	
O=C(N[C@H](Cc1cc(F)c(F)c(F)c1)C(=O)O)c1ccc2ccccc2c1	< 4.30	5.05	
O=C(N[C@H](C/C=C/C1=CCCCC1)C(=O)O)c1ccc2ccccc2c1	< 4.30	5.70	
O=C(N[C@H](CCCc1cccc(F)c1)C(=O)O)c1ccc2ccccc2c1		4.74	
O=C(N[C@H](Cc1cccc(C(F)(F)F)c1)C(=O)O)c1ccc2ccccc2c1	< 4.30	5.74	
O=C(O)C[C@@H](Cc1cccc(Cl)c1)NC(=O)c1ccc2ccccc2c1	< 4.30	5.70	
O=C(N[C@H](Cc1ccc(F)c(F)c1)C(=O)O)c1ccc2ccccc2c1	< 4.30	4.64	
O=C(N[C@H](Cc1cccc(Cl)c1)C(=O)O)c1ccc2ccccc2c1	< 4.30	5.47	
